According to ChEMBL document CHEMBL1201862, “PubChem BioAssay data set” (2004):
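Compound exposure: 48 hours, 5 concentrations, 96-well plates. GI50 marks 50% less growth.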 Calls of active or inactive are those of the source. No stated cut-off is given here; in the data, active = GI50 up to about 1.1 µM and inactive = higher.

Tests used:
Test in all cases: growth of human tumour cells (NCI), 48 h
[1] = system: MOLT-4
[2] = system: ACHN
[3] = system: SF-539
[4] = system: RPMI-8226
[5] = system: UACC-257
[6] = system: SW-620
[7] = system: TK-10
[8] = system: CAKI-1
[9] = system: RXF 393
[10] = system: SN12C
[11] = system: SF-268
[12] = system: HOP-92
[13] = system: HCC 2998
[14] = system: UACC-62
[15] = system: SR
[16] = system: IGROV-1
[17] = system: 786-0
[18] = system: SK-MEL-28
[19] = system: HOP-62

Measured: GI50

COc1ccc(-n2c(=O)c3nc(S)[nH]c3n(-c3ccc(OC)cc3)c2=S)cc1
inactive: [1] > 100 µM | [2] > 100 µM | [3] > 100 µM | [4] > 100 µM | [5] > 100 µM | [6] > 100 µM | [7] > 100 µM | [8] > 100 µM | [9] > 100 µM | [10] > 100 µM | [11] > 100 µM | [12] > 100 µM | [13] > 100 µM | [14] > 100 µM | [15] > 100 µM | [16] > 100 µM | [17] > 100 µM | [18] > 100 µM | [19] > 100 µM

CN1CCOC(C(NC(=O)c2ccccc2)c2ccccc2)C1=O (stereo unspecified)
inactive: [1] > 100 µM | [2] > 100 µM | [3] > 100 µM | [4] > 100 µM | [5] > 100 µM | [6] > 100 µM | [7] > 100 µM | [8] > 100 µM | [9] > 100 µM | [10] > 100 µM | [11] > 100 µM | [12] > 100 µM | [13] > 100 µM | [14] > 100 µM | [15] > 100 µM | [16] > 100 µM | [17] > 100 µM | [18] > 100 µM | [19] > 100 µM

CN(C)CC1CCCC(CN(C)C)C1OC(=O)c1ccccc1 (stereo unspecified)
inactive: [1] > 100 µM | [2] > 100 µM | [3] > 100 µM | [4] > 100 µM | [5] > 100 µM | [6] > 100 µM | [7] > 100 µM | [8] > 100 µM | [9] > 100 µM | [10] > 100 µM | [11] > 100 µM | [12] > 100 µM | [13] > 100 µM | [14] > 100 µM | [15] > 100 µM | [16] > 100 µM | [17] > 100 µM | [18] > 100 µM | [19] > 100 µM

COc1cc2c(cc1OC)C1(c3ccc(Cl)cc3)ON=C(c3ccccc3)N1CS2 (stereo unspecified)
inactive: [1] 11 µM | [2] 91.8 µM | [3] > 100 µM | [4] 48.1 µM | [5] > 100 µM | [6] > 100 µM | [7] > 100 µM | [8] > 100 µM | [9] 21.2 µM | [10] 64.7 µM | [11] > 100 µM | [12] 44.8 µM | [13] > 100 µM | [14] 36 µM | [15] 7.05 µM | [16] 38.7 µM | [17] > 100 µM | [18] > 100 µM | [19] > 100 µM
